Experiments:
Assay type in all cases: cell-based
[1] = system: Human lung adenocarcinoma cell A549; test: CCK-8 cell proliferation assay, A549; conditions: A549 cells, 72 hrs with drug, CCK-8, OD 450 nm
Experimental: (§1) The effect of samples on the proliferation of human tumor cells in vitro was determined by CCK-8 cell proliferation assay.
(§2) The cells were assayed through a method including the following steps: • 1) The cells were digested, counted, and prepared into a cell suspension in a corresponding culture medium (Table 1) (5×10^4 cells/ml for CFPAC-1 and RPMI 8226, and 3.5×10^4 cells/ml for rest cells). The cell suspension was added to each well of a 96-well plate in 100 μl/well. • 2) Then the 96-well plate was incubated for 24 hrs in an incubator at 37° C. and 5% CO2. • 3) The drug was diluted with the culture medium to the required working concentration. 100 μl of the corresponding drug containing medium was added to each well.

[2] = system: Human hepatoma cell HepG2; test: CCK-8 cell proliferation assay, HepG2; conditions: HepG2 cells, 72 hrs with drug, CCK-8, OD 450 nm
Experimental: as §1, §2

[3] = system: Human esophageal cancer cell TE-1; test: CCK-8 cell proliferation assay, TE-1; conditions: TE-1 cells, 72 hrs with drug, CCK-8, OD 450 nm
Experimental: as §1, §2

[4] = system: Human gastric cancer cell MKN45; test: CCK-8 cell proliferation assay, MKN45; conditions: MKN-45 cells, 72 hrs with drug, CCK-8, OD 450 nm
Experimental: as §1, §2

[5] = system: Human colon cancer cell HCT-116; test: CCK-8 cell proliferation assay, HCT-116; conditions: HCT116 cells, 72 hrs with drug, CCK-8, OD 450 nm
Experimental: as §1, §2

[6] = system: Human multiple myeloma cell RPMI 8226; test: CCK-8 cell proliferation assay, RPMI 8226; conditions: RPMI8226 cells, 72 hrs with drug, CCK-8, OD 450 nm
Experimental: as §1, §2

[7] = system: Human pancreatic cancer cell CFPAC-1; test: CCK-8 cell proliferation assay, CFPAC-1; conditions: CFPAC-1 cells, 72 hrs with drug, CCK-8, OD 450 nm
Experimental: as §1, §2

Structure (SMILES) | IC50 [1] | IC50 [2] | IC50 [3] | IC50 [4] | IC50 [5] | IC50 [6] | IC50 [7]
COc1cccc(OC)c1C(=O)N1CCN(CCCCCNC(=NC#N)Nc2ccncc2)CC1 [BSS-PC006, 2-cyano-1-(5-(1-(2,6-dimethoxybenzoyl)piperazine-4-yl)pentyl)-3-(4-pyridinyl)guanidine] | 73 nM | 92 nM | 125 nM | 89 nM | 76 nM | 34 nM | 55 nM
N#CN=C(NCCCCCC1CCN(C(=O)C2CCCO2)C1)Nc1ccncc1 (centres unmarked) [BSS-PC036, 2-cyano-1-(5-(1-(2-tetrahydrofuranformyl)pyrrolidine-3-yl)pentyl)-3-(4-pyridinyl)guanidine] | 28 nM | 90 nM | 72 nM | 36 nM | 58 nM | 25 nM | 39 nM
N#CN=C(NCCCCCC1CCN(C(=O)C2CCCS2)C1)Nc1ccncc1 (centres unmarked) [BSS-PC034, 2-cyano-1-(5-(1-(2-tetrahydrothienylformyl)pyrrolidine-3-yl)pentyl)-3-(4-pyridinyl)guanidine] | 23 nM | 37 nM | 39 nM | 31 nM | 27 nM | 18 nM | 23 nM
N#CN=C(NCCCCCN1CCN(C(=O)c2ccco2)CC1)Nc1ccncc1 [BSS-PC007, 2-cyano-1-(5-((1-furoyl)piperazine-4-yl)pentyl)-3-(4-pyridinyl)guanidine] | 36 nM | 91 nM | 96 nM | 72 nM | 55 nM | 29 nM | 27 nM
N#CN=C(NCCCCCN1CCN(C(=O)c2ccc[nH]2)CC1)Nc1ccncc1 [BSS-PC008, 2-cyano-1-(5-(1-(2-pyrrolylformyl)piperazine-4-yl)pentyl)-3-(4-pyridinyl)guanidine] | 55 nM | 101 nM | 107 nM | 59 nM | 89 nM | 38 nM | 51 nM
